# Reference: patent US20220340597A1, “HEXAHYDRO-1H-PYRAZINO[1,2-A]PYRAZINE COMPOUNDS FOR THE TREATMENT OF AUTOIMMUNE DISEASE” (Hoffmann-La Roche Inc., priority 2019, published 2022)
# Molecular target: T1, human TLR7 (Homo sapiens, UniProt Q9NYK1)
# T1 construct: host or cells: HEK293 (HEK-Blue hTLR7)
# T1 sequence (Q9NYK1 27-1049): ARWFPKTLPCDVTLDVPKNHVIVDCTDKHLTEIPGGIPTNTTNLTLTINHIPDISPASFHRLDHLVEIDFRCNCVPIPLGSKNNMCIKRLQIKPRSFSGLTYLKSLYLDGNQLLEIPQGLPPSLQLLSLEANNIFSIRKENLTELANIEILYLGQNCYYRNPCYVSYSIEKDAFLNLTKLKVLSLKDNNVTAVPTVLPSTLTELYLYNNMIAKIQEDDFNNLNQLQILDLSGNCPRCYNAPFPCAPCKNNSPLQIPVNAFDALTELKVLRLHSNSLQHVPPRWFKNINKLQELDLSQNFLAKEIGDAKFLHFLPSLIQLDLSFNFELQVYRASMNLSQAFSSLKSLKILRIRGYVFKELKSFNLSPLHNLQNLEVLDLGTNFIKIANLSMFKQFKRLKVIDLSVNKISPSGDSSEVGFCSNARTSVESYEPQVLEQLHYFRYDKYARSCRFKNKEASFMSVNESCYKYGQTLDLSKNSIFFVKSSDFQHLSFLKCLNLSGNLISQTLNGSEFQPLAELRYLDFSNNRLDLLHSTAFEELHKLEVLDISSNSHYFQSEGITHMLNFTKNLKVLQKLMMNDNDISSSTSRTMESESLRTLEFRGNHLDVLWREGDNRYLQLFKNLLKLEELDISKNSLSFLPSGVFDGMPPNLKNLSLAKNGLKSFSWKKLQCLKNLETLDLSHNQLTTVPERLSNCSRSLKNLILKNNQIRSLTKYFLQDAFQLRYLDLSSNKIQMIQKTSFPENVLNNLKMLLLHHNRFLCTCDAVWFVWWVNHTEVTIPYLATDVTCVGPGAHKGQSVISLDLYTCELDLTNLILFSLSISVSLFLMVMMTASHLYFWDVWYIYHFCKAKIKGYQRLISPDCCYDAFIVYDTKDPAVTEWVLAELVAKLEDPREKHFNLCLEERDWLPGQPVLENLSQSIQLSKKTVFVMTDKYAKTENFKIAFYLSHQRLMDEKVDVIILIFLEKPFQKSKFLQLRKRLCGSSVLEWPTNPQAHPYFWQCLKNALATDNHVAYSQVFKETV
# Test: HEK293-Blue-hTLR-7 cells assay
# Assay type: cell-based
# Details: HEK293-Blue-hTLR7 cells, R848 stimulation, 20 hrs, SEAP reporter; read-out: HEK/hTLR7 IC50
# Experimental: The following tests were carried out in order to determine the activity of the compounds of formula (I) and (Ia) in HEK293-Blue-hTLR-7/8/9 cells assay.
# HEK293-Blue-hTLR-7 cells assay:
# A stable HEK293-Blue-hTLR-7 cell line was purchased from InvivoGen (Cat. #: hkb-htlr7, San Diego, Calif., USA). These cells were originally designed for studying the stimulation of human TLR7 by monitoring the activation of NF-κB. A SEAP (secreted embryonic alkaline phosphatase) reporter gene was placed under the control of the […] minimal promoter fused to five NF-κB and AP-1-binding sites. The SEAP was induced by activating NF-κB and AP-1 via stimulating HEK-Blue hTLR7 cells with TLR7 ligands. Therefore, the reporter expression was declined by TLR7 antagonist under the stimulation of a ligand, such as R848 (Resiquimod), for incubation of 20 hrs. The cell culture supernatant SEAP reporter activity was determined using QUANTI-Blue™ kit (Cat. #: rep-qb1, Invivogen, San Diego, Calif., USA) at a wavelength of 640 nm, a detection medium that turns purple or blue in the presence of alkaline phosphatase.
# Then 20 μL of the supernatant from each well was incubated with […] Quanti-blue substrate solution at 37° C. for 2 hrs and the absorbance was read at 620-655 nm using a spectrophotometer. The signaling pathway that TLR7 activation leads to downstream NF-κB activation has been widely accepted, and therefore similar reporter assay was modified for evaluating TLR7 antagonist.
row,Compound,IC50 [nM]
1,"[2H]c1ccc2c(N3C[C@@H]4CN(Cc5ccc(N6CCNCC6)nc5)CCN4[C@H](C)C3)ccc(C#N)c2n1 [Example 78, 5-[(4R,9aS)-4-methyl-8-[(6-piperazin-1-yl-3-pyridyl)methyl]-3,4,6,7,9,9a-hexahydro-1H-pyrazino[1,2-a]pyrazin-2-yl]-2-deuterio-quinoline-8-carbonitrile]",35
2,"Cc1nc(N2CCNCC2)ccc1CN1CCN2[C@@H](C1)CN(c1ccc(C#N)c3ncccc13)C[C@H]2C [Example 60, 5-[(4R,9aS)-4-methyl-8-[(2-methyl-6-piperazin-1-yl-3-pyridyl)methyl]-3,4,6,7,9,9a-hexahydro-1H-pyrazino[1,2-a]pyrazin-2-yl]quinoline-8-carbonitrile]",8
3,"C[C@@H]1CN(c2ccc(C#N)c3ncccc23)C[C@@H]2CN(CCc3ccc(N4CC(C)(N)C4)nc3)CCN21 [Example 65, 5-[(4R,9aS)-8-[2-[6-(3-amino-3-methyl-azetidin-1-yl)-3-pyridyl]ethyl]-4-methyl-3,4,6,7,9,9a-hexahydro-1H-pyrazino[1,2-a]pyrazin-2-yl]quinoline-8-carbonitrile]",19
4,"C[C@@H]1CN(c2ccc(C#N)c3ncccc23)C[C@@H]2CN(c3ccnc(N4CCOC[C@@H](N)C4)c3)CCN21 [Example 53, 5-[(4R,9aS)-8-[2-[(6S)-6-amino-1,4-oxazepan-4-yl]-4-pyridyl]-4-methyl-3,4,6,7,9,9a-hexahydro-1H-pyrazino[1,2-a]pyrazin-2-yl]quinoline-8-carbonitrile]",13
5,"CO[C@@H]1CN(c2ccc(CCN3CCN4[C@@H](C3)CN(c3ccc(C#N)c5ncccc35)C[C@H]4C)cc2)C[C@H]1N [Example 26, 5-[(4R,9aS)-8-[2-[4-[(3R,4R)-3-amino-4-methoxy-pyrrolidin-1-yl]phenyl]ethyl]-4-methyl-3,4,6,7,9,9a-hexahydro-1H-pyrazino[1,2-a]pyrazin-2-yl]quinoline-8-carbonitrile]",18
6,"C[C@@H]1CN(c2ccc(C#N)c3ncccc23)C[C@@H]2CN(Cc3cccc(N4CCNCC4)n3)CCN21 [Example 27, 5-[(4R,9aS)-4-methyl-8-[(6-piperazin-1-yl-2-pyridyl)methyl]-3,4,6,7,9,9a-hexahydro-1H-pyrazino[1,2-a]pyrazin-2-yl]quinoline-8-carbonitrile]",21
7,"[2H]c1ccc2c(N3C[C@@H]4CN(c5ccc(CN6C[C@@H](N)[C@H](OC)C6)c(C)n5)CCN4[C@@H](C)C3)ccc(C#N)c2n1 [Example 123, 5-[(4S,9aR)-8-[5-[[(3R,4R)-3-amino-4-methoxy-pyrrolidin-1-yl]methyl]-6-methyl-2-pyridyl]-4-methyl-3,4,6,7,9,9a-hexahydro-1H-pyrazino[1,2-a]pyrazin-2-yl]-2-deuterio-quinoline-8-carbonitrile]",27
8,"C[C@@H]1CN(c2cccc(CCN3CCN4[C@@H](C3)CN(c3ccc(C#N)c5ncccc35)C[C@H]4C)n2)CCN1 [Example 58, 5-[(4R,9aS)-4-methyl-8-[2-[6-[(3R)-3-methylpiperazin-1-yl]-2-pyridyl]ethyl]-3,4,6,7,9,9a-hexahydro-JH-pyrazino[1,2-a]pyrazin-2-yl]quinoline-8-carbonitrile]",20
9,"C[C@@H]1CN(c2ccc(C#N)n3ncc(F)c23)C[C@@H]2CN(CCc3ccc(N4C[C@@H](N)[C@@H](F)C4)nc3)CCN21 [Example 75, 4-[(4R,9aS)-8-[2-[6-[(3R,4S)-3-amino-4-fluoro-pyrrolidin-1-yl]-3-pyridyl]ethyl]-4-methyl-3,4,6,7,9,9a-hexahydro-1H-pyrazino[1,2-a]pyrazin-2-yl]-3-fluoro-pyrazolo[1,5-a]pyridine-7-carbonitrile]",34
10,"C[C@@H]1CN(c2ccc(C#N)c3ncccc23)C[C@@H]2CN(Cc3ccc(N4CCCNCC4)nc3)CCN21 [Example 15, 5-[(4R,9aS)-8-[[6-(1,4-diazepan-1-yl)-3-pyridyl]methyl]-4-methyl-3,4,6,7,9,9a-hexahydro-JH-pyrazino[1,2-a]pyrazin-2-yl]quinoline-8-carbonitrile]",49
11,"C[C@@H]1CN(c2ccc(C#N)c3ncccc23)C[C@@H]2CN(CCc3ccc(N4CCN[C@@H](C)C4)cn3)CCN21 [Example 20, 5-[(4R,9aS)-4-methyl-8-[2-[5-[(3S)-3-methylpiperazin-1-yl]-2-pyridyl]ethyl]-3,4,6,7,9,9a-hexahydro-1H-pyrazino[1,2-a]pyrazin-2-yl]quinoline-8-carbonitrile]",14
12,"CO[C@@H]1CN(c2ccc(CCN3CCN4[C@@H](C3)CN(c3ccc(C#N)n5ncc(F)c35)C[C@H]4C)cn2)C[C@H]1N [Example 67, 4-[(4R,9aS)-8-[2-[6-[(3R,4R)-3-amino-4-methoxy-pyrrolidin-1-yl]-3-pyridyl]ethyl]-4-methyl-3,4,6,7,9,9a-hexahydro-1H-pyrazino[1,2-a]pyrazin-2-yl]-3-fluoro-pyrazolo[1,5-a]pyridine-7-carbonitrile]",65
13,"[2H]c1ccc2c(N3C[C@@H]4CN(c5ccc(CCN6C[C@@H](N)[C@@H](F)C6)nc5)CCN4[C@@H](C)C3)ccc(C#N)c2n1 [Example 117, 5-[(4S,9aR)-8-[6-[2-[(3R,4S)-3-amino-4-fluoro-pyrrolidin-1-yl]ethyl]-3-pyridyl]-4-methyl-3,4,6,7,9,9a-hexahydro-1H-pyrazino[1,2-a]pyrazin-2-yl]-2-deuterio-quinoline-8-carbonitrile]",23
14,"Cc1nc(N2CC(C)(N)C2)ccc1CN1CCN2[C@@H](C1)CN(c1ccc(C#N)c3ncccc13)C[C@H]2C [Example 76, 5-[(4R,9aS)-8-[[6-(3-amino-3-methyl-azetidin-1-yl)-2-methyl-3-pyridyl]methyl]-4-methyl-3,4,6,7,9,9a-hexahydro-1H-pyrazino[1,2-a]pyrazin-2-yl]quinoline-8-carbonitrile]",16
15,"C[C@@H]1CN(c2ccc(C#N)c3ncccc23)C[C@@H]2CN(c3ccnc(N4CCNCC4)n3)CCN21 [Example 33, 5-[(4R,9aR)-4-methyl-8-(2-piperazin-1-ylpyrimidin-4-yl)-3,4,6,7,9,9a-hexahydro-1H-pyrazino[1,2-a]pyrazin-2-yl]quinoline-8-carbonitrile]",10
16,"[2H]c1ccc2c(N3C[C@@H]4CN(c5ccc([C@H]6CNCCO6)cc5)CCN4[C@@H](C)C3)ccc(C#N)c2n1 [Example 107, 5-[(4S,9aS)-4-methyl-8-[4-[(2S)-morpholin-2-yl]phenyl]-3,4,6,7,9,9a-hexahydro-1H-pyrazino[1,2-a]pyrazin-2-yl]-2-deuterio-quinoline-8-carbonitrile]",3
17,"C[C@@H]1CN(c2ccc(C#N)c3ncccc23)C[C@@H]2CN(CCc3ccc(N4CCNCC4)cc3)CCN21 [Example 7, 5-[(4R,9aS)-4-methyl-8-[2-(4-piperazin-1-ylphenyl)ethyl]-3,4,6,7,9,9a-hexahydro-1H-pyrazino[1,2-a]pyrazin-2-yl]quinoline-8-carbonitrile]",5
18,"[2H]c1ccc2c(N3C[C@@H]4CN(CCc5ccc(N6C[C@@H](N)[C@H](OC)C6)nc5)CCN4[C@H](C)C3)ccc(C#N)c2n1 [Example 62, 5-[(4R,9aS)-8-[2-[6-[(3R,4R)-3-amino-4-methoxy-pyrrolidin-1-yl]-3-pyridyl]ethyl]-4-methyl-3,4,6,7,9,9a-hexahydro-1H-pyrazino[1,2-a]pyrazin-2-yl]-2-deuterio-quinoline-8-carbonitrile]",23
19,"C[C@@H]1CN(c2ccc(C#N)c3ncccc23)C[C@@H]2CN(Cc3cccc4c3CNC4)CCN21 [Example 72, 5-[(4R,9aS)-8-(isoindolin-4-ylmethyl)-4-methyl-3,4,6,7,9,9a-hexahydro-1H-pyrazino[1,2-a]pyrazin-2-yl]quinoline-8-carbonitrile]",12
